PMC7385619, “A triple action CDK4/6-PI3K-BET inhibitor with augmented cancer cell cytotoxicity” (Cell Discovery, 2020)

Key:
Experiment in all cases: KINOMEscan assay (Eurofins DiscoverX)
Assay type in all cases: binding
kinome (kinase panel) [1] = target: T1, kinome (kinase panel) (Homo sapiens, UniProt Q9UPE1); settings: SRPK3; 1000 nM; read-out: Percent Control
T1 construct: purchased Eurofins DiscoverX

kinome (kinase panel) [2] = target: T2, kinome (kinase panel) (Homo sapiens, UniProt Q13882); settings: BRK (Entrez PTK6); 1000 nM; read-out: Percent Control
T2 construct: purchased Eurofins DiscoverX

kinome (kinase panel) [3] = target: T3, kinome (kinase panel) (Homo sapiens, UniProt Q9H3Y6); settings: SRMS; 1000 nM; read-out: Percent Control
T3 construct: purchased Eurofins DiscoverX

kinome (kinase panel) [4] = target: T4, kinome (kinase panel) (Homo sapiens, UniProt Q56UN5); settings: YSK4 (MAP3K19); 1000 nM; read-out: Percent Control
T4 construct: purchased Eurofins DiscoverX

kinome (kinase panel) [5] = target: T5, kinome (kinase panel) (Homo sapiens, UniProt Q9UKE5); settings: TNIK; 1000 nM; read-out: Percent Control
T5 construct: purchased Eurofins DiscoverX

kinome (kinase panel) [6] = target: T6, kinome (kinase panel) (Homo sapiens, UniProt Q9NYY3); settings: PLK2; 1000 nM; read-out: Percent Control
T6 construct: purchased Eurofins DiscoverX

kinome (kinase panel) [7] = target: T7, kinome (kinase panel) (Homo sapiens, UniProt Q9NRH2); settings: SNRK; 1000 nM; read-out: Percent Control
T7 construct: purchased Eurofins DiscoverX

kinome (kinase panel) [8] = target: T8, kinome (kinase panel) (Homo sapiens, UniProt Q9NSY1); settings: BIKE (Entrez BMP2K); 1000 nM; read-out: Percent Control
T8 construct: purchased Eurofins DiscoverX

kinome (kinase panel) [9] = target: T9, kinome (kinase panel) (Homo sapiens, UniProt P00533); settings: EGFR; 1000 nM; read-out: Percent Control
T9 construct: purchased Eurofins DiscoverX
T9 sequence (P00533 25-1210): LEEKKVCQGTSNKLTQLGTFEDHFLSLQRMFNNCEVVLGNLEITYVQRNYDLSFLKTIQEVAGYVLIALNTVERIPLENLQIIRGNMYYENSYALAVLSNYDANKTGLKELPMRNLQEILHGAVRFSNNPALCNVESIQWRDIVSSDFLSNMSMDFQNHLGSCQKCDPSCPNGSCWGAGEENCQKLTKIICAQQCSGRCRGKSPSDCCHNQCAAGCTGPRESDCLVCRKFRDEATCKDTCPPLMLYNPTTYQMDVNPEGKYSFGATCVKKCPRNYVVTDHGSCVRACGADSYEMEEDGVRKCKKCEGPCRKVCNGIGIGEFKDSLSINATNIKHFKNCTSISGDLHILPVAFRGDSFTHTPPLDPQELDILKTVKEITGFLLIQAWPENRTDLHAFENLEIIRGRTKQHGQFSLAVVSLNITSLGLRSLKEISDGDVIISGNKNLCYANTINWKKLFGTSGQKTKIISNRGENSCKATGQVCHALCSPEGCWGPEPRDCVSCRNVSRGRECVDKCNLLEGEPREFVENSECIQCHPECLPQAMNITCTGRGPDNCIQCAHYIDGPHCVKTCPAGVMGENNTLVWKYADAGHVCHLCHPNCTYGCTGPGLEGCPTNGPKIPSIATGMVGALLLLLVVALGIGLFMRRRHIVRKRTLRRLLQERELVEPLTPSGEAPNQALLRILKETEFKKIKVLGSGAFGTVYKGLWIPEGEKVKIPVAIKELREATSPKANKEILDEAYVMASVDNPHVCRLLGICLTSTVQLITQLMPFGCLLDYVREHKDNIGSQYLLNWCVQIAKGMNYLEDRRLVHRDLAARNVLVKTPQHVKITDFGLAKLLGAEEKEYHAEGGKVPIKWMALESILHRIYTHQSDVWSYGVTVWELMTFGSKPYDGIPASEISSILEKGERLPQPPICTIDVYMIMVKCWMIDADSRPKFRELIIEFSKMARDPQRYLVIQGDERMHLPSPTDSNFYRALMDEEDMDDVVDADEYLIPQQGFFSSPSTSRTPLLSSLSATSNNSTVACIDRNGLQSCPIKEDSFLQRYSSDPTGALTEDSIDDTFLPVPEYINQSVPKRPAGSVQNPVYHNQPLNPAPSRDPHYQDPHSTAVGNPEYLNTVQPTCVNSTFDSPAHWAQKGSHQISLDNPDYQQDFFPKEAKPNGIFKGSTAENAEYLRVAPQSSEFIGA

kinome (kinase panel) [10] = target: T10, kinome (kinase panel) (Homo sapiens, UniProt Q05397); settings: FAK (Entrez PTK2); 1000 nM; read-out: Percent Control
T10 construct: purchased Eurofins DiscoverX
T10 sequence (Q05397 whole entry): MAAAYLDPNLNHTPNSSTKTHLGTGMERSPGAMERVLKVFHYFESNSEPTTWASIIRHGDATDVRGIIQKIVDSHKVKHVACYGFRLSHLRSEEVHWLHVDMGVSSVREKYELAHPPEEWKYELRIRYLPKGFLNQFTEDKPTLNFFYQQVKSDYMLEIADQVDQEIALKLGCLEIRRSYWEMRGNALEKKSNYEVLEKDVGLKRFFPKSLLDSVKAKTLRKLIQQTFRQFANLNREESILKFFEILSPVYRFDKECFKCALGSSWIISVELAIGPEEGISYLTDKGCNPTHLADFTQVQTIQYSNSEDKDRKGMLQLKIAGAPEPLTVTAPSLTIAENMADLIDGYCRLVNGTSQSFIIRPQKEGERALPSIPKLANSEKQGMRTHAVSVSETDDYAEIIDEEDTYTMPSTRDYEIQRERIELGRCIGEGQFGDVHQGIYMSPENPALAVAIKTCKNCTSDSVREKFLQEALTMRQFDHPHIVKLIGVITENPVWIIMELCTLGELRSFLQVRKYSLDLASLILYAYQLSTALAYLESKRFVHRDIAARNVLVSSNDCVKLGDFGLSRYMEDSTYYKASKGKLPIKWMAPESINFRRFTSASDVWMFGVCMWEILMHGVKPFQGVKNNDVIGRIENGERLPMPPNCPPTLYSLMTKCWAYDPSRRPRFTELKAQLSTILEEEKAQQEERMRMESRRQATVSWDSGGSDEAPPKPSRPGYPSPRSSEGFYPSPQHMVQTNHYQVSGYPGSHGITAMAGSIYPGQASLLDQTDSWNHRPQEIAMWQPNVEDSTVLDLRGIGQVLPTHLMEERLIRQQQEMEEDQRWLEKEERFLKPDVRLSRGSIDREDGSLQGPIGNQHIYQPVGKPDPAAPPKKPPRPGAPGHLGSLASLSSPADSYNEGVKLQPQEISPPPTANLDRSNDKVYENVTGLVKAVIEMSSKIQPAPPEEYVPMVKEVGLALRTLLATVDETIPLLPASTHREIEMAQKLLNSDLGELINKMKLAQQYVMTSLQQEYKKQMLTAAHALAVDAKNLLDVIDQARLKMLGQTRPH

kinome (kinase panel) [11] = target: T11, kinome (kinase panel) (Homo sapiens, UniProt P30291); settings: WEE1; 1000 nM; read-out: Percent Control
T11 construct: purchased Eurofins DiscoverX
T11 sequence (P30291 whole entry): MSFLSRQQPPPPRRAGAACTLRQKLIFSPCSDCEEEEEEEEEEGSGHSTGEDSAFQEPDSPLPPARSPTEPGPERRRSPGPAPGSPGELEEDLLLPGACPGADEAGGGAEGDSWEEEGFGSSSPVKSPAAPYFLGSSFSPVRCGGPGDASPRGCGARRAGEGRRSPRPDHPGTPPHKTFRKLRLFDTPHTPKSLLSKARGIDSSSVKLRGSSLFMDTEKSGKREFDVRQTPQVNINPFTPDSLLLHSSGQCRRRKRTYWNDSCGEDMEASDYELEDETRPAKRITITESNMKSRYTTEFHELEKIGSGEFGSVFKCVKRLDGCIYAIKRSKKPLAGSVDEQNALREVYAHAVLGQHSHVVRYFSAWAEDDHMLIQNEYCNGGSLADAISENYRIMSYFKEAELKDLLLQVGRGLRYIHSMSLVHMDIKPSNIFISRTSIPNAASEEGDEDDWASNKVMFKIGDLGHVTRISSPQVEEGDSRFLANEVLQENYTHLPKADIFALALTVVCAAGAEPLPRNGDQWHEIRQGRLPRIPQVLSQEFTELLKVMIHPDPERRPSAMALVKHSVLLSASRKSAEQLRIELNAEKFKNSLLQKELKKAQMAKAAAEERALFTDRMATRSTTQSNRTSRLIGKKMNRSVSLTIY

kinome (kinase panel) [12] = target: T12, kinome (kinase panel) (Homo sapiens, UniProt Q9P2K8, S808G); settings: read-out: Percent Control
T12 construct: purchased Eurofins DiscoverX

kinome (kinase panel) [13] = target: T13, kinome (kinase panel) (Homo sapiens, UniProt P49674); settings: CSNK1E; 1000 nM; read-out: Percent Control
T13 construct: purchased Eurofins DiscoverX

kinome (kinase panel) [14] = target: T14, kinome (kinase panel) (Homo sapiens, UniProt Q16539); settings: p38-alpha (Entrez MAPK14); 1000 nM; read-out: Percent Control
T14 construct: purchased Eurofins DiscoverX

kinome (kinase panel) [15] = target: T15, kinome (kinase panel) (Homo sapiens, UniProt Q86UE8); settings: TLK2; 1000 nM; read-out: Percent Control
T15 construct: purchased Eurofins DiscoverX

kinome (kinase panel) [16] = target: T16, kinome (kinase panel) (Homo sapiens, UniProt P09619); settings: PDGFRB; 1000 nM; read-out: Percent Control
T16 construct: purchased Eurofins DiscoverX

kinome (kinase panel) [17] = target: T17, kinome (kinase panel) (Homo sapiens, UniProt Q96NX5); settings: CAMK1G; 1000 nM; read-out: Percent Control
T17 construct: purchased Eurofins DiscoverX

kinome (kinase panel) [18] = target: T18, kinome (kinase panel) (Homo sapiens, UniProt O43318); settings: TAK1 (MAP3K7); 1000 nM; read-out: Percent Control
T18 construct: purchased Eurofins DiscoverX

kinome (kinase panel) [19] = target: T19, kinome (kinase panel) (Homo sapiens, UniProt Q9UBE8); settings: NLK; 1000 nM; read-out: Percent Control
T19 construct: purchased Eurofins DiscoverX

kinome (kinase panel) [20] = target: T20, kinome (kinase panel) (Homo sapiens, UniProt P49841); settings: GSK3B; 1000 nM; read-out: Percent Control
T20 construct: purchased Eurofins DiscoverX
T20 sequence (P49841 whole entry): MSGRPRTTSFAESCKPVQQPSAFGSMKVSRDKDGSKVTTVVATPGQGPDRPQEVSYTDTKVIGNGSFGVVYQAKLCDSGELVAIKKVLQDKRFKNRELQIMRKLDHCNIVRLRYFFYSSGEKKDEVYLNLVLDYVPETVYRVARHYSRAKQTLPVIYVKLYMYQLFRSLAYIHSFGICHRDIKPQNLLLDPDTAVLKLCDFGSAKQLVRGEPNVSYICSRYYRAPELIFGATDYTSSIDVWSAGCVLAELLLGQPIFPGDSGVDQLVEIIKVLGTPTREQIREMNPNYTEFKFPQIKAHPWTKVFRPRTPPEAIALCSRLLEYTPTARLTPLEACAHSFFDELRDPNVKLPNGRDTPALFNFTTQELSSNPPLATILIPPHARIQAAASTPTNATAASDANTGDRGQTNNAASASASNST

kinome (kinase panel) [21] = target: T21, kinome (kinase panel) (Homo sapiens, UniProt Q13470); settings: TNK1; 1000 nM; read-out: Percent Control
T21 construct: purchased Eurofins DiscoverX

kinome (kinase panel) [22] = target: T22, kinome (kinase panel) (Homo sapiens, UniProt Q96GD4); settings: AURKB; 1000 nM; read-out: Percent Control
T22 construct: purchased Eurofins DiscoverX
T22 sequence (Q96GD4 whole entry): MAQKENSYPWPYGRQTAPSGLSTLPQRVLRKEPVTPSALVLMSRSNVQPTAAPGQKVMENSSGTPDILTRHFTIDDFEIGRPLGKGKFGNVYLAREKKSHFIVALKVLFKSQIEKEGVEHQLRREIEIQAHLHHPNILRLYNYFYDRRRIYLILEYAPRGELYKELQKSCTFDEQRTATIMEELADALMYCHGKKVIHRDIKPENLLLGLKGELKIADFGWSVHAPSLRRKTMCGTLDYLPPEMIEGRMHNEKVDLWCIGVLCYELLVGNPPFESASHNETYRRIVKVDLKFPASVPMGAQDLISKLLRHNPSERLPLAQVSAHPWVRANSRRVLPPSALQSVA

kinome (kinase panel) [23] = target: T23, kinome (kinase panel) (Homo sapiens, UniProt P31152); settings: ERK4 (Entrez MAPK4); 1000 nM; read-out: Percent Control
T23 construct: purchased Eurofins DiscoverX
T23 sequence (P31152 whole entry): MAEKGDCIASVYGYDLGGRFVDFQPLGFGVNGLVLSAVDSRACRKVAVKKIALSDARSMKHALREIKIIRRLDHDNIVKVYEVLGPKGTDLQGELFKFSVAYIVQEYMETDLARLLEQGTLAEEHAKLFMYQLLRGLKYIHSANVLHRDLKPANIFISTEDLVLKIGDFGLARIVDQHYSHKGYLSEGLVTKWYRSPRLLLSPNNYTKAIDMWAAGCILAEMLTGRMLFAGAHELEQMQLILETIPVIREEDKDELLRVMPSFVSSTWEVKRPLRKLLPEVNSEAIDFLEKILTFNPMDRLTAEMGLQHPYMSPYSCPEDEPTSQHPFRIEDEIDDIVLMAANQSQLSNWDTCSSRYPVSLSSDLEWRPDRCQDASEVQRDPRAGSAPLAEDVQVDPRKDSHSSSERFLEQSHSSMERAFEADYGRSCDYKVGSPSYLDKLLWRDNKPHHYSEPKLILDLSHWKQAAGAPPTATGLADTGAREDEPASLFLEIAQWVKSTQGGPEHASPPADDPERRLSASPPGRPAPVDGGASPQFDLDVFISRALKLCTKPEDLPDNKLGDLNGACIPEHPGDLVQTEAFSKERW

kinome (kinase panel) [24] = target: T24, kinome (kinase panel) (Homo sapiens, UniProt P29322); settings: EPHA8; 1000 nM; read-out: Percent Control
T24 construct: purchased Eurofins DiscoverX

kinome (kinase panel) [25] = target: T25, kinome (kinase panel) (Homo sapiens, UniProt P48729); settings: CSNK1A1; 1000 nM; read-out: Percent Control
T25 construct: purchased Eurofins DiscoverX
T25 sequence (P48729 whole entry): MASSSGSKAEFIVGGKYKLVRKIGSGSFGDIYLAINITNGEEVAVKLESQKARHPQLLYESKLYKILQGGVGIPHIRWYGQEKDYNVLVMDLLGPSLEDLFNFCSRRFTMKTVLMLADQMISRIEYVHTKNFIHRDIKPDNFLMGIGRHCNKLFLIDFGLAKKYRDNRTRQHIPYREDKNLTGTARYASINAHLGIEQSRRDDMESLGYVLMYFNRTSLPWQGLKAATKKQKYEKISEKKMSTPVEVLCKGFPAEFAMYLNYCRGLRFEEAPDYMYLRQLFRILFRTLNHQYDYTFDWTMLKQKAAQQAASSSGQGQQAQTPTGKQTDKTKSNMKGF

kinome (kinase panel) [26] = target: T26, kinome (kinase panel) (Homo sapiens, UniProt P54756); settings: EPHA5; 1000 nM; read-out: Percent Control
T26 construct: purchased Eurofins DiscoverX

kinome (kinase panel) [27] = target: T27, kinome (kinase panel) (Homo sapiens, UniProt Q59H18); settings: TNNI3K; 1000 nM; read-out: Percent Control
T27 construct: purchased Eurofins DiscoverX

kinome (kinase panel) [28] = target: T28, kinome (kinase panel) (Homo sapiens, UniProt P00519, Y253F); settings: read-out: Percent Control
T28 construct: purchased Eurofins DiscoverX

kinome (kinase panel) [29] = target: T29, kinome (kinase panel) (Homo sapiens, UniProt Q13976); settings: PRKG1; 1000 nM; read-out: Percent Control
T29 construct: purchased Eurofins DiscoverX

kinome (kinase panel) [30] = target: T30, kinome (kinase panel) (Homo sapiens, UniProt P32298); settings: GRK4; 1000 nM; read-out: Percent Control
T30 construct: purchased Eurofins DiscoverX

kinome (kinase panel) [31] = target: T31, kinome (kinase panel) (Homo sapiens, UniProt Q96Q40); settings: PFTAIRE2 (Entrez CDK15); 1000 nM; read-out: Percent Control
T31 construct: purchased Eurofins DiscoverX
T31 sequence (Q96Q40 whole entry): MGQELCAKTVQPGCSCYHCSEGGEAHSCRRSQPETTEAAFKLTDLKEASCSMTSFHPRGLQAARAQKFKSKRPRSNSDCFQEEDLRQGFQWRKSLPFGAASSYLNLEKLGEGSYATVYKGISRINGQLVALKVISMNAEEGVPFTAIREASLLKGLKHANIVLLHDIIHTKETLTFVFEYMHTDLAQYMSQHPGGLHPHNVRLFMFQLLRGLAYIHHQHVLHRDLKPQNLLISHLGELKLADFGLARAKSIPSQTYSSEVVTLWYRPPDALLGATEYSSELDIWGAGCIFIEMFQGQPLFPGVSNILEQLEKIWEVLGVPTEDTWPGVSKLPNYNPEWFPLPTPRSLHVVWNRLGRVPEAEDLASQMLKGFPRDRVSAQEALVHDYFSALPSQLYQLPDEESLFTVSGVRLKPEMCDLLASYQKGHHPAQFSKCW

kinome (kinase panel) [32] = target: T32, kinome (kinase panel) (Homo sapiens, UniProt Q13554); settings: CAMK2B; 1000 nM; read-out: Percent Control
T32 construct: purchased Eurofins DiscoverX

kinome (kinase panel) [33] = target: T33, kinome (kinase panel) (Homo sapiens, UniProt P04049); settings: RAF1; 1000 nM; read-out: Percent Control
T33 construct: purchased Eurofins DiscoverX

SMILES: CN(C)C(=O)c1cc2cnc(Nc3ccc(-c4csc5c(=O)cc(N6CCOCC6)oc45)cc3)nc2n1C1CCCC1 [SRX3177]
- remaining binding at 1 µM (kinome (kinase panel) [1]): 35%
- remaining binding at 1 µM (kinome (kinase panel) [2]): 100%
- remaining binding at 1 µM (kinome (kinase panel) [3]): 92%
- remaining binding at 1 µM (kinome (kinase panel) [4]): 65%
- remaining binding at 1 µM (kinome (kinase panel) [5]): 95%
- remaining binding at 1 µM (kinome (kinase panel) [6]): 86%
- remaining binding at 1 µM (kinome (kinase panel) [7]): 82%
- remaining binding at 1 µM (kinome (kinase panel) [8]): 10%
- remaining binding at 1 µM (kinome (kinase panel) [9]): 100%
- remaining binding at 1 µM (kinome (kinase panel) [10]): 90%
- remaining binding at 1 µM (kinome (kinase panel) [11]): 99%
- remaining binding at 1 µM (kinome (kinase panel) [12]): 71%
- remaining binding at 1 µM (kinome (kinase panel) [13]): 63%
- remaining binding at 1 µM (kinome (kinase panel) [14]): 100%
- remaining binding at 1 µM (kinome (kinase panel) [15]): 100%
- remaining binding at 1 µM (kinome (kinase panel) [16]): 44%
- remaining binding at 1 µM (kinome (kinase panel) [17]): 75%
- remaining binding at 1 µM (kinome (kinase panel) [18]): 94%
- remaining binding at 1 µM (kinome (kinase panel) [19]): 81%
- remaining binding at 1 µM (kinome (kinase panel) [20]): 75%
- remaining binding at 1 µM (kinome (kinase panel) [21]): 57%
- remaining binding at 1 µM (kinome (kinase panel) [22]): 4.9%
- remaining binding at 1 µM (kinome (kinase panel) [23]): 96%
- remaining binding at 1 µM (kinome (kinase panel) [24]): 92%
- remaining binding at 1 µM (kinome (kinase panel) [25]): 83%
- remaining binding at 1 µM (kinome (kinase panel) [26]): 100%
- remaining binding at 1 µM (kinome (kinase panel) [27]): 94%
- remaining binding at 1 µM (kinome (kinase panel) [28]): 72%
- remaining binding at 1 µM (kinome (kinase panel) [29]): 100%
- remaining binding at 1 µM (kinome (kinase panel) [30]): 39%
- remaining binding at 1 µM (kinome (kinase panel) [31]): 90%
- remaining binding at 1 µM (kinome (kinase panel) [32]): 82%
- remaining binding at 1 µM (kinome (kinase panel) [33]): 100%
